Values quoted from earlier work in US20250215497A1, “IL-8, IL-6, IL-1 Beta and TET2 and DNMT3A in Atherosclerosis” (The Brigham and Women’s Hospital, Inc., priority 2017, published 2025).

Tests used:
IL-6 = details: patients with rheumatoid arthritis, low-dose methotrexate
IL-1β = details: patients with rheumatoid arthritis, low-dose methotrexate (for example from 15 to 20 mg/week)

## CN(Cc1cnc2nc(N)nc(N)c2n1)c1ccc(C(=O)N[C@@H](CCC(=O)O)C(=O)O)cc1 [methotrexate]
IL-6
  effect on IL-6 levels: improve IL-6 levels
IL-1β
  effect on IL-1β levels: improve IL-1β levels
